Data on 1 compound can be found in ChEMBL document CHEMBL3351728, “3-alkoxy-pyrrolo[1,2-b]pyrazolines as selective androgen receptor modulators with ideal physicochemical properties for transdermal administration” (J Med Chem, 2014).

Converted amounts (≈) assume the structure as drawn. The source made the active and inactive calls. The rule behind the calls is not given here.

A short description of series [1]: Thermodynamic solubility of the compound at pH 7.4. The conditions noted are these: buffer, read-out: Therm_solubility. It counts as physicochemical.
In a further series the target is T1, Androgen receptor (Homo sapiens, UniProt P10275).
T1 sequence (P10275 whole entry): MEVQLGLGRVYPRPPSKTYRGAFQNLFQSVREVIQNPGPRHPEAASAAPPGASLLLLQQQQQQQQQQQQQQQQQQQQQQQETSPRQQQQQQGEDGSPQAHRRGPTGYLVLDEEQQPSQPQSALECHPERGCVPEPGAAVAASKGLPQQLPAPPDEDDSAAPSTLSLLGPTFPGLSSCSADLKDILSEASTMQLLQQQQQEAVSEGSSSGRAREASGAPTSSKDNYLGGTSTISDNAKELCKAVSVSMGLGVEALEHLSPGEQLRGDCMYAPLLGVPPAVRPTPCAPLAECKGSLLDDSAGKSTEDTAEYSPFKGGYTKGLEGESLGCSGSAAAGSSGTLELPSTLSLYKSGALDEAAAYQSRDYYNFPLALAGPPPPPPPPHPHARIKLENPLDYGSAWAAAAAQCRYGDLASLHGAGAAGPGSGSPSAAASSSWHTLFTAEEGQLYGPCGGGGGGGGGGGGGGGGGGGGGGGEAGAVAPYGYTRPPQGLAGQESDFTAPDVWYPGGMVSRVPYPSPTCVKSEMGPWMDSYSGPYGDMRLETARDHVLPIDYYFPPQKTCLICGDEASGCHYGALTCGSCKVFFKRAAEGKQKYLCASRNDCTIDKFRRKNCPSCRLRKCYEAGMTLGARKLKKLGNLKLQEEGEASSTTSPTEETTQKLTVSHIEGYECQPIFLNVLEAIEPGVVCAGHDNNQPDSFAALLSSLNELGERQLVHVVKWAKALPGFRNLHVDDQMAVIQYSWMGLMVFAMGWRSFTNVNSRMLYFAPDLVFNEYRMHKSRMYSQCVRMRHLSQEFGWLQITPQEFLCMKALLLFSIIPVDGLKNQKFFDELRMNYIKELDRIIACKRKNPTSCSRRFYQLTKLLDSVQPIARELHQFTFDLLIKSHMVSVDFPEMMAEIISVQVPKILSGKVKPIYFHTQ
Nature of the series: Displacement of [3H]DHT from androgen receptor in human MDA-MB-435 cells after 30 mins. The format is cell-based.

A further series deals with T2, Glucocorticoid receptor (Homo sapiens, UniProt P04150).
T2 sequence (P04150 whole entry): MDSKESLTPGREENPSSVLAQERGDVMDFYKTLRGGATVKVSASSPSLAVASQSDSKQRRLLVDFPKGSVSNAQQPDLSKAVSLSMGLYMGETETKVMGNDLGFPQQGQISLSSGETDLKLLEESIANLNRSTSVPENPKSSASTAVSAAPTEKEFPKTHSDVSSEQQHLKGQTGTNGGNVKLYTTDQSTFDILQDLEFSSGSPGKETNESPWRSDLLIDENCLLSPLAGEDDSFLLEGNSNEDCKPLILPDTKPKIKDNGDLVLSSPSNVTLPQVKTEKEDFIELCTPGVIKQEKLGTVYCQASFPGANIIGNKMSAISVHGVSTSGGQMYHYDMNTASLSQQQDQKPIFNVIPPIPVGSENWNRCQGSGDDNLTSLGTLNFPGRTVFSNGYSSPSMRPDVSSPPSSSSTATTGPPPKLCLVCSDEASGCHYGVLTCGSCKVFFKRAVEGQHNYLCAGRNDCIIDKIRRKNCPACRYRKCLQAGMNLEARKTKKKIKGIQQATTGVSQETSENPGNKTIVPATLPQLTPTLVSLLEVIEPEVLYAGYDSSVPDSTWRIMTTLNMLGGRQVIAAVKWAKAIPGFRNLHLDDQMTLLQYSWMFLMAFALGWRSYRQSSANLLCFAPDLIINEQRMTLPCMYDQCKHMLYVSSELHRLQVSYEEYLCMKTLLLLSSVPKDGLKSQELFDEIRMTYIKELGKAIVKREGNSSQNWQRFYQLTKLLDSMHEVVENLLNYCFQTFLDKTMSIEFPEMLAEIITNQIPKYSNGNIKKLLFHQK
Description: Binding affinity to glucocorticoid receptor (unknown origin) incubated for 4 hrs.

In another series the target is T3, Estrogen receptor (Homo sapiens, UniProt P03372).
T3 sequence (P03372 whole entry): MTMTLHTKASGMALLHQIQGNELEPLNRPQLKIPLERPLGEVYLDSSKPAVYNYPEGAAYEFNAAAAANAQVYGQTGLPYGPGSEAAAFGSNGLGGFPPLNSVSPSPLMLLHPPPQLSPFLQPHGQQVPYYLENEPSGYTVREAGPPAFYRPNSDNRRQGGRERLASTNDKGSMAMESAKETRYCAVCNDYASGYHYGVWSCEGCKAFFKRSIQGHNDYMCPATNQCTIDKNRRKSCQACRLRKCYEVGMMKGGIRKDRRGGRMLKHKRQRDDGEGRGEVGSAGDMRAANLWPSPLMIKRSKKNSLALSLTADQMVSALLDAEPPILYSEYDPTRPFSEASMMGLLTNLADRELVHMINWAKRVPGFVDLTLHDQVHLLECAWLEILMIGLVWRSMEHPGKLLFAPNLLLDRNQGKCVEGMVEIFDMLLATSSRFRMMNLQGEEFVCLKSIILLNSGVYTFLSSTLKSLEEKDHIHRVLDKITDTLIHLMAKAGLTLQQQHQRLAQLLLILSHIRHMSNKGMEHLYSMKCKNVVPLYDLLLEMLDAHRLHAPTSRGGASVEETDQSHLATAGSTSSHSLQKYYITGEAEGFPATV
Nature of the series: Binding affinity to estrogen receptor (unknown origin) incubated for 4 hrs.

Series [2] has as its system Rattus norvegicus. Description: Anabolic activity in orchidectomized rat assessed as stimulation of bulbocavernosus/levator ani muscle weight treated at 0.3 mg/kg, sc once daily for 14 days by Hershberger assay. The arrangement: dose 0.3 mg/kg. It counts as functional, organism-based.
Series [3] relates to Rattus norvegicus. Description: Androgenic activity in orchidectomized rat assessed as stimulation of prostate weight treated subcutaneously once daily for 14 days by Hershberger assay. The conditions noted are these: Prostate gland, sc, 336 h. It counts as organism-based.

By IC50 is commonly meant the midpoint of a concentration-inhibition curve. Higher therefore signals weaker potency. The term ED50 denotes the dose that gives a 50% effect, or the effect in half of the subjects. On to `CO[C@@H]1C(c2ccc(C#N)c(Cl)c2C)=NN2CC[C@H](O)[C@@H]12`, for which the solubility thermodynamic in series [1] was 1300 µg/mL (≈ 4.25 mM). The concentration for half-maximal inhibition (IC50) at Androgen receptor is 0.7 nM; at Glucocorticoid receptor it was greater than 1000 nM; at Estrogen receptor, greater than 1000 nM. The result in the series on Rattus norvegicus [2] was Active. Further, the 50% effective dose (ED50) with Rattus norvegicus [3] was 2.73 mg/kg.
